Assay type in all cases: in vivo
Data set [1] deals with cleavers (Galium aparine L.), Ga. The data set can be described thus: Test Example 4: herbicidal effect on upland weeds after emergence. As to conditions: dosage 5 kg/ha; sprayed after emergence; judged 14 days after treatment. The procedure, abridged:
(§1)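 Weeds, soybean and wheat were sown in soil-filled vats, covered with soil and grown to set leaf stages before a post-emergence spray of an agent containing the compound at a prescribed concentration. Weed-killing rate and crop phytotoxicity were assessed 14 days after treatment.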

Data set [2] relates to bird's eye speedwell (Veronica persica Poir.), Vp. The description is as above. The settings on record: dosage 5 kg/ha; sprayed after emergence; judged 14 days after treatment. The procedure, abridged: as §1
Data set [3] deals with barnyard grass (Echinochloa crus-galli Beauv.), Ec. Described as above. The settings on record: dosage 5 kg/ha; sprayed after emergence; judged 14 days after treatment. The procedure, abridged:
as §1

For data set [4], the system named is velvetleaf (Abutilon theophtasti L.), At. The data set is described as above. The settings on record: dosage 5 kg/ha; sprayed after emergence; judged 14 days after treatment. An outline of the steps:
as §1

In data set [5] the test system is forxtail grass (Alopecurus aequalis var. amurensis Ohwi), Am. Described as above. The settings on record: dosage 5 kg/ha; sprayed after emergence; judged 14 days after treatment. The procedure, abridged: as §1
In data set [6] the test system is cocklebur (Xanthium strumarium L.), Xs. The description is as above. The settings on record: dosage 5 kg/ha; sprayed after emergence; judged 14 days after treatment. The procedure, abridged: as §1
Data set [7] concerns bulrush (Scirpus juncoides Roxb.). Nature of the data set: Test Example 1: herbicidal effect on paddy field weeds before emergence. The settings on record: Dosage 5 kg/ha. An outline of the steps:
(§2)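 Soil in pots is brought to paddy state and seeded with barnyard grass and bulrush; before germination, the soil receives a predetermined dosage of test compound in solution. After twenty-one days, control rate relative to untreated pots is calculated and graded.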

The subject of data set [8] is barnyard grass (Echinochloa crus-galli Beauv.). The data set is described as above. As to conditions: Dosage 5 kg/ha. An outline of the steps:
as §2

Data set [9] has as its system bulrush (Scirpus juncoides Roxb.). Nature of the data set: Test Example 2: herbicidal effect on paddy field weeds after emergence. The settings on record: Dosage 5 kg/ha; one-leaved stage; 21 days after treatment. An outline of the steps:
(§3)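 Weeds in flooded paddy-soil pots were grown to the one-leaved stage, then the soil was treated with the compound solution at a set dosage.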

Data set [10] has as its system monochoria (Monochoria vaginalis Presl). Described as above. The settings on record: Dosage 5 kg/ha; one-leaved stage; 21 days after treatment. The procedure, abridged:
as §3

Data set [11] concerns barnyard grass (Echinochloa crus-galli Beauv.). The description is as above. The settings on record: Dosage 5 kg/ha; one-leaved stage; 21 days after treatment. The procedure, abridged:
as §3

Data set [12] relates to cleavers (Galium aparine L.), Ga. Nature of the data set: Test Example 3: herbicidal effect on upland weeds before emergence. The settings on record: dosage 5 kg/ha. An outline of the steps: (§4)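 Steps: sow upland weed seeds; spray liquid formulation of active ingredient at prescribed concentration prior to emergence; after 14 days, calculate weed-killing rate; judge herbicidal effect.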

Data set [13] deals with bird's eye speedwell (Veronica persica Poir.), Vp. Described as above. The settings on record: dosage 5 kg/ha. The procedure, abridged: as §4
Data set [14] has as its system barnyard grass (Echinochloa crus-galli Beauv.), Ec. The data set is described as above. The settings on record: dosage 5 kg/ha. An outline of the steps:
as §4

Data set [15] relates to velvetleaf (Abutilon theophtasti L.), At. The data set is described as above. The settings on record: dosage 5 kg/ha. The procedure, abridged: as §4
Data set [16] relates to forxtail grass (Alopecurus aequalis var. amurensis Ohwi), Am. The description is as above. As to conditions: foxtail grass, dosage 5 kg/ha. The procedure, abridged: as §4
The test system of data set [17] is cocklebur (Xanthium strumarium L.), Xs. The description is as above. The settings on record: dosage 5 kg/ha. The procedure, abridged:
as §4

In the next data set the test system is wheat. Nature of the data set: Test Example 4: phytotoxicity to upland crop plants, treatment after emergence. The settings on record: dosage 5 kg/ha, sprayed after emergence, judged 14 days after treatment. The procedure, abridged: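 Scores of weed-killing rate, with crop phytotoxicity, come from inspection 14 days after plants in soil vats, grown to specified leaf stages, are sprayed with a formulation holding the compound at a prescribed concentration.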

In the next data set the test system is soybean plant. Described as above. As to conditions: dosage 5 kg/ha, sprayed after emergence, judged 14 days after treatment. The procedure, abridged:
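Weeds and soybean grown in soil-filled vats to set leaf stages, then sprayed post-emergence with the compound at a prescribed concentration. Weed-killing rate and crop phytotoxicity judged 14 days after treatment.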

Another data set deals with wheat (Wh). The data set can be described thus: Test Example 3: phytotoxicity to upland crop plants, treatment before emergence. The settings on record: dosage 5 kg/ha. An outline of the steps: (§5)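 Pre-emergence treatment: a liquid preparation containing a prescribed concentration of test compound was sprayed, and injury to soybean and wheat was assessed 14 days later. Phytotoxicity was judged against a scoring criterion, alongside weed-killing rate.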

The test system of another data set is soybean plant (So). The description is as above. The settings on record: dosage 5 kg/ha. The procedure, abridged: as §5

SMILES strings stand for the structures.

As for `CCCNC(=O)c1nc2onc(C)c2cc1C(=O)Nc1c(CC)ccc(Cl)c1CC` [compound 1064], the “Herbicidal effect Ga” value in [1] and in data set [12] was 5 (Weed-killing rate is 100%.) throughout. Also, the “Herbicidal effect Vp” value in [2] and in [13] was 5 (Weed-killing rate is 100%.) in each case. In addition, the “Herbicidal effect Ec” value in data set [3] and in [14] was 5 (Weed-killing rate is 100%.) each time. In addition, the “Herbicidal effect At” value in data set [4] and in data set [15] was 5 (Weed-killing rate is 100%.) throughout. Moreover, the “Herbicidal effect Am” value in data set [5] and in [16] was 5 (Weed-killing rate is 100%.) each time. The “Herbicidal effect Xs” value in [6] and in [17] was 5 (Weed-killing rate is 100%.) each time. In addition, the “Pre-emergence treatment Bulrush (herbicidal effect)” value (“Pre-emergence treatment Bulrush” below) in data set [7] is 5 (Weed-killing rate is 100%.). In addition, the “Pre-emergence treatment Barnyard grass (herbicidal effect)” value (from here on “Pre-emergence treatment Barnyard grass”) in data set [8] is on record as 5 (Weed-killing rate is 100%.). Also, the “Post-emergence treatment Bulrush (herbicidal effect)” value (from here on “Post-emergence treatment Bulrush”) in data set [9] is given as 5 (Weed-killing rate is 100%.). Besides, in [10], the “Post-emergence treatment Monochoria (herbicidal effect)” value (“Post-emergence treatment Monochoria” below) was 5 (Weed-killing rate is 100%.). Moreover, in [11], the “Post-emergence treatment Barnyard grass (herbicidal effect)” value (from here on “Post-emergence treatment Barnyard grass”) is 5 (Weed-killing rate is 100%.). The “Phytotoxicity Wh” value in the data set with wheat and with wheat (Wh) was 5 (Crop-killing rate is 100%.) in each case. In addition, the “Phytotoxicity So” value in the data set on soybean plant and in the data set with soybean plant (So) was 4 (Crop-killing rate is 90-99%.) in each case.

As to `Cc1c(Cl)cccc1NC(=O)c1cc2c(C)noc2nc1C(=O)NC1CCCC1` [compound 1085], the “Herbicidal effect Ga” value in data set [1] is recorded as 4 (Weed-killing rate is 90-99%.); in data set [12] it was 5 (Weed-killing rate is 100%.). Further, the “Herbicidal effect Vp” value in data set [2] and in data set [13] was 5 (Weed-killing rate is 100%.) throughout. The “Herbicidal effect Ec” value in [3] and in [14] was 5 (Weed-killing rate is 100%.) each time. For the same compound, the “Herbicidal effect At” value in data set [4] and in [15] was 5 (Weed-killing rate is 100%.) throughout. In addition, the “Herbicidal effect Am” value in data set [5] and in data set [16] was 5 (Weed-killing rate is 100%.) each time. Moreover, the “Herbicidal effect Xs” value in data set [6] and in data set [17] was 5 (Weed-killing rate is 100%.) in each case. In data set [7], the “Pre-emergence treatment Bulrush” value was 5 (Weed-killing rate is 100%.). The “Pre-emergence treatment Barnyard grass” value in data set [8] is 5 (Weed-killing rate is 100%.). The “Post-emergence treatment Bulrush” value in [9] is 5 (Weed-killing rate is 100%.). For the same compound, the “Post-emergence treatment Monochoria” value in [10] is 5 (Weed-killing rate is 100%.). Moreover, in data set [11], the “Post-emergence treatment Barnyard grass” value was 5 (Weed-killing rate is 100%.). Further, the “Phytotoxicity Wh” value in the data set with wheat and in the data set with wheat (Wh) was 5 (Crop-killing rate is 100%.) throughout. For the same compound, the “Phytotoxicity So” value in the data set on soybean plant and with soybean plant (So) was 4 (Crop-killing rate is 90-99%.) in each case.

With `CCNC(=O)c1nc2c(cnn2C)cc1C(=O)Nc1c(CC)ccc(Cl)c1CC` [compound 1087], the “Herbicidal effect Ga” value in data set [1] and in data set [12] was 5 (Weed-killing rate is 100%.) in each case. Besides, the “Herbicidal effect Vp” value in data set [2] and in [13] was 5 (Weed-killing rate is 100%.) each time. Further, the “Herbicidal effect Ec” value in data set [3] and in data set [14] was 5 (Weed-killing rate is 100%.) in each case. Besides, the “Herbicidal effect At” value in [4] and in [15] was 5 (Weed-killing rate is 100%.) in each case. Besides, the “Herbicidal effect Am” value in data set [5] and in data set [16] was 5 (Weed-killing rate is 100%.) in each case. Also, the “Herbicidal effect Xs” value in data set [6] and in data set [17] was 5 (Weed-killing rate is 100%.) in each case. Moreover, the “Pre-emergence treatment Bulrush” value in [7] was 5 (Weed-killing rate is 100%.). Moreover, in data set [8], the “Pre-emergence treatment Barnyard grass” value is listed as 5 (Weed-killing rate is 100%.). For the same compound, the “Post-emergence treatment Bulrush” value in data set [9] is recorded as 5 (Weed-killing rate is 100%.). In addition, in data set [10], the “Post-emergence treatment Monochoria” value was 5 (Weed-killing rate is 100%.). Besides, in [11], the “Post-emergence treatment Barnyard grass” value is on record as 5 (Weed-killing rate is 100%.). In addition, the “Phytotoxicity Wh” value in the data set on wheat and with wheat (Wh) was 5 (Crop-killing rate is 100%.) each time. The “Phytotoxicity So” value with soybean plant is 4 (Crop-killing rate is 90-99%.); with soybean plant (So) it was 5 (Crop-killing rate is 100%.).

Take `CCCNC(=O)c1nc2c(cnn2C)cc1C(=O)Nc1c(CC)ccc(Cl)c1CC` [compound 1088]: the “Herbicidal effect Ga” value in data set [1] and in [12] was 5 (Weed-killing rate is 100%.) in each case. Moreover, the “Herbicidal effect Vp” value in data set [2] and in data set [13] was 5 (Weed-killing rate is 100%.) in each case. The “Herbicidal effect Ec” value in data set [3] and in data set [14] was 5 (Weed-killing rate is 100%.) in each case. Moreover, the “Herbicidal effect At” value in data set [4] and in data set [15] was 5 (Weed-killing rate is 100%.) in each case. The “Herbicidal effect Am” value in data set [5] and in data set [16] was 5 (Weed-killing rate is 100%.) each time. The “Herbicidal effect Xs” value in [6] and in [17] was 5 (Weed-killing rate is 100%.) in each case. Also, in data set [7], the “Pre-emergence treatment Bulrush” value is on record as 5 (Weed-killing rate is 100%.). Also, the “Pre-emergence treatment Barnyard grass” value in data set [8] is on record as 5 (Weed-killing rate is 100%.). Moreover, the “Post-emergence treatment Bulrush” value in [9] is 5 (Weed-killing rate is 100%.). Further, the “Post-emergence treatment Monochoria” value in data set [10] is given as 5 (Weed-killing rate is 100%.). The “Post-emergence treatment Barnyard grass” value in data set [11] is 5 (Weed-killing rate is 100%.). The “Phytotoxicity Wh” value with wheat and in the data set with wheat (Wh) was 5 (Crop-killing rate is 100%.) each time. The “Phytotoxicity So” value with soybean plant and with soybean plant (So) was 5 (Crop-killing rate is 100%.) in each case.

Source of the values: patent US6444617B1, “Fused-heterocycle dicarboxylic acid diamide derivatives or salts thereof, herbicide and usage thereof” (Nihon Nohyaku Co., Ltd., priority 1998, dated 2002).
